Reference: US20240300893A1, “SMALL MOLECULE COMPOUNDS TARGETING SRSF6 PROTEIN AND THEIR PREPARATION METHODS AND APPLICATIONS” (CHINA PHARMACEUTICAL UNIVERSITY, priority 2021, published 2024)
Read-outs that look alike come from different tables or passages of the source.

Legend:
[1] = test system: HT29 cells; test: Inhibitory effect on HT29 cells (cell survival rate at 48 h); assay type: cell-based, Human; details: HT29, procedures as for SW620, 48 h, read-out: IC50, inhibitory effects on HT29 cells
Description: (§1) Compound I was prepared with the same concentration gradient for primary screening, and compounds with lower IC50 than indacaterol were screened for secondary screening with concentration gradients of 1, 2, 4, and 8 μM.
(§2) Both rounds of screening were performed on the colorectal cancer cell line SW620 with an initial cell number of 5000 cells per well, and the cell survival rate at 48 h was determined directly to determine the IC50 of the compound.
(§3) Cell viability=[(reading of experimental group−reading of blank group)/(reading of control group−reading of blank group)]×100%.

[2] = test system: SW620 cells; test: Inhibitory effect on SW620 cells (cell survival rate at 48 h); assay type: cell-based; details: read-out: IC50, inhibitory effects on SW620 cells
Description: as §1, §2, §3

[3] = test system: RKO cells; test: Inhibitory effect on RKO cells (cell survival rate at 48 h); assay type: cell-based, Human; details: procedures as for SW620, 48 h, read-out: IC50, inhibitory effects on RKO cells
Description: as §1, §2, §3

[4] = target: T1, SRSF6 protein (Homo sapiens, UniProt Q13247); test: SRSF6 protein thermal shift assay; assay type: binding; details: for migration of SRSF6 protein compared with DMSO: in words
T1 sequence (Q13247 1-183): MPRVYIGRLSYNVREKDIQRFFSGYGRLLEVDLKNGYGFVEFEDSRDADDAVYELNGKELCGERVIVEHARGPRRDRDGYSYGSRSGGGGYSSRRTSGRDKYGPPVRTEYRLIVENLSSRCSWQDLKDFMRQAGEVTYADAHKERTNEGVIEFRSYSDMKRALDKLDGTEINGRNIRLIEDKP
Text: SRSF proteins play an important role in the regulation of gene expression, including constitutive splicing, alternative splicing, mRNA nuclear export and translation. SRSF proteins can be divided into two groups according to the number of RRM domains. Among them, SRSF6 has RRM1 and RRM2 domains. The RRM1 domain contains conserved sequences of RNP-1 and RNP-2, which can bind to related mRNAs. However, the RRM2 domain contains the evolutionarily conserved SWQDLKD heptapeptide sequence. RRM1 and RRM2 domains play irreplaceable roles in the specific recognition of alternative splice sites. Overexpression of SRSF6 induced colorectal carcinogenesis by binding to cell adhesion factor ZO-1, while indacaterol was validated to inhibit tumor development. Therefore, RRM1 and RRM2 domains of SRSF6 were extracted and the binding ability of compound I1 to SRSF6 was investigated by protein thermal shift assay using LYW1 as a reference.
We used DMSO as the blank group, and 56.5 μM SRSF6 protein was added to the PCR tube with LYW1 and I1 at a concentration of 1:10, respectively. After TS dye was added in the dark, the thermal migration assay was performed.

[5] = Homo sapiens, SW-620, 48 h, SW620, 5000 cells per well

**Q.** Which IC50 ([1]; Homo sapiens, HT-29) does the source give for `CCc1cc2c(cc1CC)CC(NC[C@@H](O)c1ccc(OCc3ccc(F)cc3)c3[nH]c(=O)ccc13)C2` [Compound I1, (S)-5-(2-((5,6-diethyl-2,3-dihydro-1H-inden-2-yl)amino)-1-hydroxyethyl)-8-((4-fluorobenzyl)oxy)quinolin-2(1H)-one] here?
**A.** Its IC50 is 1.42 µM.

**Q.** What about the IC50 ([2]; Homo sapiens, SW-620, SW620, 5000 cells per well) of the same compound?
**A.** Its IC50 is 3.12 µM.

**Q.** And the IC50 ([3]; Homo sapiens)?
**A.** Its IC50 is 1.42 µM.

**Q.** What about the “binding effect with SRSF6 protein” value ([4]; compared with LYW1, in words) of the same compound?
**A.** The value was “better binding effect”.

**Q.** What about the “migration of SRSF6 protein compared with DMSO” value [4] of the same compound?
**A.** Its value is “negative migration”.

**Q.** For `CCc1cc2c(cc1CC)CC(NC[C@@H](O)c1ccc(OCc3cc(F)cc(F)c3)c3[nH]c(=O)ccc13)C2` [Compound I9, (S)-5-(2-((5,6-diethyl-2,3-dihydro-1H-inden-2-yl)amino)-1-hydroxyethyl)-8-((3,5-difluorobenzyl)oxy)quinolin-2(1H)-one], which IC50 [2, 5] is on record?
**A.** The IC50 was 3.15 µM.

**Q.** `CCc1cc2c(cc1CC)CC(NC[C@@H](O)c1ccc(OCc3c(F)c(F)c(F)c(F)c3F)c3[nH]c(=O)ccc13)C2` [Compound I11, (S)-5-(2-((5,6-diethyl-2,3-dihydro-1H-inden-2-yl)amino)-1-hydroxyethyl)-8-((perfluorophenyl)methoxy)quinolin-2(1H)-one] was tested. Which IC50 [2, 5] did it give?
**A.** The IC50 was 6.09 µM.

**Q.** With `CCc1cc2c(cc1CC)CC(NC[C@H](O)c1ccc(O)c3[nH]c(=O)ccc13)C2` [Indacaterol, reference compound] as the compound, how does the IC50 [1] read?
**A.** Its IC50 is 12.7 µM.

**Q.** What about the IC50 ([1]; Homo sapiens, HT-29, 48 h) of the same compound?
**A.** The IC50 was 10 to 15 µM.

**Q.** What about the IC50 [2, 5] of the same compound?
**A.** The IC50 was 20 to 25 µM.

**Q.** What about the IC50 ([2]; SW620, 5000 cells per well) of the same compound?
**A.** Its IC50 is 23.1 µM.

**Q.** And the IC50 ([3]; Homo sapiens, 48 h)?
**A.** Its IC50 is 10 to 15 µM.

**Q.** And the IC50 [3]?
**A.** The IC50 was 12.8 µM.

**Q.** With `CCc1cc2c(cc1CC)CC(NC[C@H](O)c1ccc(OCc3ccc(C)cc3)c3[nH]c(=O)ccc13)C2` [Compound I5, (R)-5-(2-((5,6-diethyl-2,3-dihydro-1H-inden-2-yl)amino)-1-hydroxyethyl)-8-((4-methylbenzyl)oxy)quinolin-2(1H)-one] as the compound, how does the IC50 [2, 5] read?
**A.** The IC50 was 2.98 µM.

**Q.** `CCc1cc2c(cc1CC)CC(NC[C@H](O)c1ccc(OCc3cccc(F)c3)c3[nH]c(=O)ccc13)C2` [Compound I7, (R)-5-(2-((5,6-diethyl-2,3-dihydro-1H-inden-2-yl)amino)-1-hydroxyethyl)-8-((3-fluorobenzyl)oxy)quinolin-2(1H)-one] was tested. Which IC50 ([1]; Homo sapiens, HT-29, 48 h) did it give?
**A.** Its IC50 is 2.66 µM.

**Q.** What about the IC50 [2, 5] of the same compound?
**A.** Its IC50 is 2.73 µM.

**Q.** What about the IC50 ([3]; Homo sapiens, 48 h) of the same compound?
**A.** The IC50 was 3.11 µM.

**Q.** With `CCc1cc2c(cc1CC)CC(NC[C@@H](O)c1ccc(OCc3ccc(F)c(F)c3)c3[nH]c(=O)ccc13)C2` [Compound I10, (S)-5-(2-((5,6-diethyl-2,3-dihydro-1H-inden-2-yl)amino)-1-hydroxyethyl)-8-((3,4-difluorobenzyl)oxy)quinolin-2(1H)-one] as the compound, how does the IC50 [2, 5] read?
**A.** Its IC50 is 4.18 µM.

**Q.** For `CCc1cc2c(cc1CC)CC(NC[C@@H](O)c1ccc(OCc3ccc(C)cc3)c3[nH]c(=O)ccc13)C2` [Compound I4, (S)-5-(2-((5,6-diethyl-2,3-dihydro-1H-inden-2-yl)amino)-1-hydroxyethyl)-8-((4-methylbenzyl)oxy)quinolin-2(1H)-one], which IC50 [2, 5] is on record?
**A.** Its IC50 is 2.9 µM.

**Q.** Which IC50 ([1]; Homo sapiens, HT-29, 48 h) does the source give for `CCc1cc2c(cc1CC)CC(NC[C@H](O)c1ccc(OCc3ccccc3)c3[nH]c(=O)ccc13)C2` [LYW1, reference compound] here?
**A.** The IC50 was 2.43 µM.

**Q.** And the IC50 [2, 5]?
**A.** The IC50 was 3.54 µM.

**Q.** And the IC50 ([3]; Homo sapiens, 48 h)?
**A.** Its IC50 is 2.03 µM.

**Q.** And the “migration of SRSF6 protein compared with DMSO” value [4]?
**A.** Its value is “negative migration”.

**Q.** How did the IC50 ([1]; Homo sapiens, HT-29, 48 h) turn out when `CCc1cc2c(cc1CC)CC(NC[C@H](O)c1ccc(OCc3ccc(F)cc3)c3[nH]c(=O)ccc13)C2` [Compound I2, (R)-5-(2-((5,6-diethyl-2,3-dihydro-1H-inden-2-yl)amino)-1-hydroxyethyl)-8-((4-fluorobenzyl)oxy)quinolin-2(1H)-one] was run?
**A.** Its IC50 is 4.69 µM.

**Q.** And the IC50 [2, 5]?
**A.** Its IC50 is 8.62 µM.

**Q.** And the IC50 ([3]; Homo sapiens, 48 h)?
**A.** The IC50 was 5.56 µM.

**Q.** For `CCc1cc2c(cc1CC)CC(NC[C@@H](O)c1ccc(OCc3cccc(F)c3)c3[nH]c(=O)ccc13)C2` [Compound I6, (S)-5-(2-((5,6-diethyl-2,3-dihydro-1H-inden-2-yl)amino)-1-hydroxyethyl)-8-((3-fluorobenzyl)oxy)quinolin-2(1H)-one], which IC50 [2, 5] is on record?
**A.** The IC50 was 3.06 µM.
